Data taken from PubChem BioAssay (NCI).
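Cells were grown in 96-well plates and exposed to each compound for 48 hours at five concentrations; endpoints were interpolated linearly between bracketing concentrations, or set to the highest concentration if not reached. Abbreviation: GI50, concentration required for 50% inhibition of growth. The concentration for full growth arrest is given as TGI.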

Assays:
Assay in all cases: inhibition of tumour cell growth, NCI panel, 48 h
[1] = tested on: HOP-92 NSCLC
[2] = tested on: UO-31 renal
[3] = tested on: A549 NSCLC
[4] = tested on: SF-539 CNS
[5] = tested on: TK-10 renal
[6] = tested on: OVCAR-5 ovarian
[7] = tested on: NCI-H460 lung
[8] = tested on: HCT-15 colon
[9] = tested on: SN12C renal
[10] = tested on: UACC-257 melanoma

Structure (SMILES) | GI50 [1] [µM] | TGI [1] [µM] | GI50 [2] [µM] | TGI [2] [µM] | GI50 [3] [µM] | TGI [3] [µM] | GI50 [4] [µM] | TGI [4] [µM] | GI50 [5] [µM] | TGI [5] [µM] | GI50 [6] [µM] | TGI [6] [µM] | GI50 [7] [µM] | TGI [7] [µM] | GI50 [8] [µM] | TGI [8] [µM] | GI50 [9] [µM] | TGI [9] [µM] | GI50 [10] [µM] | TGI [10] [µM]
CS(=O)(=O)c1nccc(-c2c(-c3cccc(OCc4ccc(F)cc4)c3)nc3sccn23)n1 | 11.1 | > 100 | 2.19 | 5.57 | > 81.8 | > 100 | > 94 | > 100 | > 94.2 | > 100 | > 100 | > 100 | 56.7 | > 100 | 10.9 | > 100 | > 56.6 | > 100 | 5 | 14.8
C=C1C(=O)O[C@@H]2C[C@]3(C)[C@@H](C[C@H]12)[C@](C)(O)CC[C@@H]3O |  | > 100 |  | > 100 |  | > 100 |  | > 100 |  | 76.6 |  | > 100 |  | 68.9 |  | > 100 |  | > 100 |  | 
O=CC1=CCCC2(C1)OCCO2 |  | > 100 |  | > 100 |  | > 100 |  | > 100 |  | > 100 |  |  |  | > 100 |  | > 100 |  | > 100 |  | > 100
CC(=O)O[C@]1(C(C)=O)CC[C@H]2[C@@H]3C[C@H](C)C4=CC(=O)C=C[C@]4(C)[C@@]3(F)[C@@H](O)C[C@@]21C |  | > 100 |  | 98.9 |  | > 100 |  | > 100 |  | > 100 |  | > 100 |  | > 100 |  | > 100 |  |  |  | > 100
COc1cc2c(cc1OC)C1c3ccccc3C(C#N)(C2)N(C(=O)c2ccccc2)C1O (configuration not stated) |  | > 100 |  | > 100 |  |  |  | > 100 |  | > 100 |  | > 100 |  | > 100 |  | > 100 |  | > 100 |  | > 100
[Cu+2].[Cu+2].[O-]c1ccccc1C=Nc1ccccc1[O-].[O-]c1ccccc1C=Nc1ccccc1[O-] |  |  | 12.6 | 25.2 | 7.56 | 27.8 | 13.2 | 25.9 | 18.3 | 32.3 | 17.7 | 32.6 |  |  | 7.25 | 21.5 | 13.7 | 27.3 | 10.4 | 22.3
COc1ccc(-c2nc(-c3nc4ccc(F)cc4[nH]3)cc3c2[nH]c2ccccc23)cc1 |  |  | 2.54 | 8.74 | 2.21 | 7.5 | 2.8 | 9.33 | 2.2 | 6.74 | 4.46 | > 100 | 1.98 | 5.81 | 2.82 | > 100 | 2.97 | > 100 | 2.01 | 4.8
COc1cc(OC)cc(N2CCC(c3c(N)nc(N)nc3Cl)CC2)c1 |  | > 100 |  | > 100 |  | > 100 |  |  |  | > 100 |  | > 100 |  | > 100 |  | > 100 |  | > 100 |  | > 100
COc1ccc(CC(=O)c2cc(OC)c(OC)cc2C)cc1OC |  |  |  | > 100 |  | > 100 |  |  |  | > 100 |  | > 100 |  | > 100 |  | > 100 |  | > 100 |  | 75.8
